Measured values taken from ChEMBL document CHEMBL1201862, “PubChem BioAssay data set” (2004).
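Briefly, cells in 96-well plates were exposed to five compound concentrations for 48 h, and endpoints were estimated by linear interpolation. Here, GI50 denotes the concentration required for 50% inhibition of growth.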 Active and inactive are the calls of the source. Cut-off read from the data, not from the text of the source: active = GI50 up to about 1.1 µM and inactive = higher.

Legend:
Assay in all cases: NCI tumour cell line growth inhibition, 48 h
786-0 = system: 786-0
A498 = system: A498
A549 = system: A549
ACHN = system: ACHN
BT-549 = system: BT-549
CAKI-1 = system: CAKI-1
CCRF-CEM = system: CCRF-CEM
COLO 205 = system: COLO 205
DLD-1 = system: DLD-1
DMS-114 = system: DMS-114
DMS-273 = system: DMS-273
DU-145 = system: DU-145
EKVX = system: EKVX
HCC 2998 = system: HCC 2998
HCT-116 = system: HCT-116
HCT-15 = system: HCT-15
HL-60 = system: HL-60
HOP-18 = system: HOP-18
HOP-62 = system: HOP-62
HOP-92 = system: HOP-92
HT-29 = system: HT-29
Hs-578T = system: Hs-578T
IGROV-1 = system: IGROV-1
K562 = system: K562
KM-20L2 = system: KM-20L2
KM12 = system: KM12
LOX IMVI = system: LOX IMVI
LXFL 529 = system: LXFL 529
M14 = system: M14
M19-MEL = system: M19-MEL
MDA-MB-231 = system: MDA-MB-231
MDA-MB-435 = system: MDA-MB-435
MDA-N = system: MDA-N
MOLT-4 = system: MOLT-4
Malme-3M = system: Malme-3M
NCI-H226 = system: NCI-H226
NCI-H23 = system: NCI-H23
NCI-H460 = system: NCI-H460
NCI-H522 = system: NCI-H522
OVCAR-3 = system: OVCAR-3
OVCAR-4 = system: OVCAR-4
OVCAR-5 = system: OVCAR-5
OVCAR-8 = system: OVCAR-8
PC-3 = system: PC-3
RPMI-8226 = system: RPMI-8226
RXF 393 = system: RXF 393
RXF 631 = system: RXF 631
SF-268 = system: SF-268
SF-295 = system: SF-295
SF-539 = system: SF-539
SK-MEL-28 = system: SK-MEL-28
SK-MEL-2 = system: SK-MEL-2
SK-MEL-5 = system: SK-MEL-5
SK-OV-3 = system: SK-OV-3
SN12C = system: SN12C
SNB-19 = system: SNB-19
SNB-75 = system: SNB-75
SNB-78 = system: SNB-78
SR = system: SR
SW-620 = system: SW-620
T47D = system: T47D
TK-10 = system: TK-10
U-251 = system: U-251
UACC-257 = system: UACC-257
UACC-62 = system: UACC-62
UO-31 = system: UO-31
XF498 = system: XF498

SMILES: CCN(CC)CCNC(=O)c1nn(-c2ccc(Cl)cc2)c2c1CCc1cc(OC)ccc1-2
- GI50 (786-0): 3.52 µM (inactive)
- GI50 (A498): 8.61 µM (inactive)
- GI50 (A549): 8.22 µM (inactive)
- GI50 (ACHN): 11.4 µM (inactive)
- GI50 (BT-549): 17.4 µM (inactive)
- GI50 (CAKI-1): 8.41 µM (inactive)
- GI50 (CCRF-CEM): 5.3 µM (inactive)
- GI50 (COLO 205): 2.26 µM (inactive)
- GI50 (DLD-1): 3.54 µM (inactive)
- GI50 (DMS-114): 2.67 µM (inactive)
- GI50 (DMS-273): 2.62 µM (inactive)
- GI50 (DU-145): 15.3 µM (inactive)
- GI50 (EKVX): 10.2 µM (inactive)
- GI50 (HCC 2998): 2.34 µM (inactive)
- GI50 (HCT-116): 3.56 µM (inactive)
- GI50 (HCT-15): 2.92 µM
- GI50 (HL-60): 2.7 µM (inactive)
- GI50 (HOP-18): 15.2 µM (inactive)
- GI50 (HOP-62): 13.3 µM (inactive)
- GI50 (HOP-92): 5.51 µM (inactive)
- GI50 (HT-29): 2.64 µM (inactive)
- GI50 (Hs-578T): 3.26 µM (inactive)
- GI50 (IGROV-1): 12.8 µM (inactive)
- GI50 (K562): 2.77 µM (inactive)
- GI50 (KM-20L2): 1.64 µM (inactive)
- GI50 (KM12): 6.53 µM (inactive)
- GI50 (LOX IMVI): 2.03 µM (inactive)
- GI50 (LXFL 529): 4.74 µM (inactive)
- GI50 (M14): 2.38 µM (inactive)
- GI50 (M19-MEL): 2.7 µM (inactive)
- GI50 (MDA-MB-231): 12.1 µM (inactive)
- GI50 (MDA-MB-435): 9.98 µM (inactive)
- GI50 (MDA-N): 3.51 µM (inactive)
- GI50 (MOLT-4): 5.75 µM (inactive)
- GI50 (Malme-3M): 1.6 µM (inactive)
- GI50 (NCI-H226): 9.38 µM (inactive)
- GI50 (NCI-H23): 12.8 µM (inactive)
- GI50 (NCI-H460): 4.51 µM (inactive)
- GI50 (NCI-H522): 4.52 µM (inactive)
- GI50 (OVCAR-3): 7.24 µM (inactive)
- GI50 (OVCAR-4): 8.04 µM (inactive)
- GI50 (OVCAR-5): 4.75 µM (inactive)
- GI50 (OVCAR-8): 12.3 µM (inactive)
- GI50 (PC-3): 12.6 µM (inactive)
- GI50 (RPMI-8226): 2.9 µM (inactive)
- GI50 (RXF 393): 3.04 µM (inactive)
- GI50 (RXF 631): 1.65 µM (inactive)
- GI50 (SF-268): 7.19 µM (inactive)
- GI50 (SF-295): 3.74 µM (inactive)
- GI50 (SF-539): 4.21 µM (inactive)
- GI50 (SK-MEL-28): 2.03 µM (inactive)
- GI50 (SK-MEL-2): 1.68 µM (inactive)
- GI50 (SK-MEL-5): 1.74 µM (inactive)
- GI50 (SK-OV-3): 13.7 µM (inactive)
- GI50 (SN12C): 10.4 µM (inactive)
- GI50 (SNB-19): 10.5 µM (inactive)
- GI50 (SNB-75): 5.21 µM (inactive)
- GI50 (SNB-78): 7.67 µM (inactive)
- GI50 (SR): 4.28 µM (inactive)
- GI50 (SW-620): 3.26 µM (inactive)
- GI50 (T47D): 4.3 µM (inactive)
- GI50 (TK-10): 11 µM (inactive)
- GI50 (U-251): 5.43 µM (inactive)
- GI50 (UACC-257): 1.82 µM (inactive)
- GI50 (UACC-62): 2.77 µM (inactive)
- GI50 (UO-31): 2.49 µM (inactive)
- GI50 (XF498): 5.14 µM (inactive)

SMILES: COc1ccc(NC(=O)CC/C(CC(=O)c2ccco2)=N/NC(N)=S)cc1
- GI50 (786-0): > 100 µM (inactive)
- GI50 (A498): > 100 µM (inactive)
- GI50 (A549): > 100 µM (inactive)
- GI50 (ACHN): > 100 µM (inactive)
- GI50 (CAKI-1): > 100 µM (inactive)
- GI50 (CCRF-CEM): > 100 µM (inactive)
- GI50 (COLO 205): > 100 µM (inactive)
- GI50 (DLD-1): > 100 µM (inactive)
- GI50 (DMS-114): > 100 µM (inactive)
- GI50 (DMS-273): > 100 µM (inactive)
- GI50 (EKVX): > 100 µM (inactive)
- GI50 (HCC 2998): > 100 µM (inactive)
- GI50 (HCT-116): > 100 µM (inactive)
- GI50 (HCT-15): > 100 µM
- GI50 (HL-60): > 100 µM (inactive)
- GI50 (HOP-18): > 100 µM (inactive)
- GI50 (HOP-62): > 100 µM (inactive)
- GI50 (HOP-92): > 100 µM (inactive)
- GI50 (HT-29): > 100 µM (inactive)
- GI50 (IGROV-1): > 100 µM (inactive)
- GI50 (K562): > 100 µM (inactive)
- GI50 (KM-20L2): > 100 µM (inactive)
- GI50 (KM12): > 100 µM (inactive)
- GI50 (LOX IMVI): > 100 µM (inactive)
- GI50 (LXFL 529): > 100 µM (inactive)
- GI50 (M14): > 100 µM (inactive)
- GI50 (M19-MEL): > 100 µM (inactive)
- GI50 (MOLT-4): > 100 µM (inactive)
- GI50 (Malme-3M): > 100 µM (inactive)
- GI50 (NCI-H226): > 100 µM (inactive)
- GI50 (NCI-H23): > 100 µM (inactive)
- GI50 (NCI-H460): > 100 µM (inactive)
- GI50 (NCI-H522): > 100 µM (inactive)
- GI50 (OVCAR-3): > 100 µM (inactive)
- GI50 (OVCAR-4): > 100 µM (inactive)
- GI50 (OVCAR-5): > 100 µM (inactive)
- GI50 (OVCAR-8): > 100 µM (inactive)
- GI50 (RPMI-8226): > 100 µM (inactive)
- GI50 (RXF 631): > 100 µM (inactive)
- GI50 (SF-268): > 100 µM (inactive)
- GI50 (SF-295): > 100 µM (inactive)
- GI50 (SF-539): > 100 µM (inactive)
- GI50 (SK-MEL-2): > 100 µM (inactive)
- GI50 (SK-OV-3): > 100 µM (inactive)
- GI50 (SN12C): > 100 µM (inactive)
- GI50 (SNB-19): > 100 µM (inactive)
- GI50 (SNB-78): > 100 µM (inactive)
- GI50 (SW-620): > 100 µM (inactive)
- GI50 (TK-10): > 100 µM (inactive)
- GI50 (U-251): > 100 µM (inactive)
- GI50 (UACC-257): > 100 µM (inactive)
- GI50 (UACC-62): > 100 µM (inactive)
- GI50 (UO-31): > 100 µM (inactive)
- GI50 (XF498): > 100 µM (inactive)

SMILES: Nn1c(-c2cccc(Cl)c2)nc2ccccc2c1=O
- GI50 (786-0): > 100 µM (inactive)
- GI50 (A498): > 100 µM (inactive)
- GI50 (A549): > 100 µM (inactive)
- GI50 (ACHN): > 100 µM (inactive)
- GI50 (CAKI-1): > 100 µM (inactive)
- GI50 (CCRF-CEM): 51.5 µM (inactive)
- GI50 (COLO 205): > 100 µM (inactive)
- GI50 (DLD-1): > 100 µM (inactive)
- GI50 (DMS-114): > 100 µM (inactive)
- GI50 (DMS-273): > 100 µM (inactive)
- GI50 (EKVX): > 100 µM (inactive)
- GI50 (HCC 2998): > 100 µM (inactive)
- GI50 (HCT-116): > 100 µM (inactive)
- GI50 (HCT-15): > 100 µM
- GI50 (HL-60): > 100 µM (inactive)
- GI50 (HOP-18): 68.5 µM (inactive)
- GI50 (HOP-62): > 100 µM (inactive)
- GI50 (HOP-92): > 100 µM (inactive)
- GI50 (HT-29): > 100 µM (inactive)
- GI50 (IGROV-1): > 100 µM (inactive)
- GI50 (K562): > 100 µM (inactive)
- GI50 (KM-20L2): > 100 µM (inactive)
- GI50 (KM12): > 100 µM (inactive)
- GI50 (LXFL 529): > 100 µM (inactive)
- GI50 (M14): > 100 µM (inactive)
- GI50 (MOLT-4): 60.1 µM (inactive)
- GI50 (Malme-3M): > 100 µM (inactive)
- GI50 (NCI-H226): > 100 µM (inactive)
- GI50 (NCI-H23): > 100 µM (inactive)
- GI50 (NCI-H460): > 100 µM (inactive)
- GI50 (NCI-H522): > 100 µM (inactive)
- GI50 (OVCAR-3): > 100 µM (inactive)
- GI50 (OVCAR-4): > 100 µM (inactive)
- GI50 (OVCAR-5): > 100 µM (inactive)
- GI50 (OVCAR-8): > 100 µM (inactive)
- GI50 (RPMI-8226): > 100 µM (inactive)
- GI50 (RXF 631): > 100 µM (inactive)
- GI50 (SF-268): > 100 µM (inactive)
- GI50 (SF-295): > 100 µM (inactive)
- GI50 (SF-539): > 100 µM (inactive)
- GI50 (SK-MEL-28): > 100 µM (inactive)
- GI50 (SK-MEL-2): > 100 µM (inactive)
- GI50 (SK-MEL-5): > 100 µM (inactive)
- GI50 (SK-OV-3): > 100 µM (inactive)
- GI50 (SN12C): > 100 µM (inactive)
- GI50 (SNB-19): > 100 µM (inactive)
- GI50 (SNB-75): > 100 µM (inactive)
- GI50 (SNB-78): > 100 µM (inactive)
- GI50 (SW-620): > 100 µM (inactive)
- GI50 (TK-10): > 100 µM (inactive)
- GI50 (U-251): > 100 µM (inactive)
- GI50 (UACC-257): > 100 µM (inactive)
- GI50 (UACC-62): > 100 µM (inactive)
- GI50 (UO-31): > 100 µM (inactive)
- GI50 (XF498): 23.5 µM (inactive)
